The text below walks through data of ChEMBL document CHEMBL3804814, “Quinazolines and quinazolinones as ubiquitous structural fragments in medicinal chemistry: An update on the development of synthetic methods and pharmacological diversification” (Bioorg Med Chem, 2016).

One may read the inhibition as the change of the read-out against control, counted positive when it falls. Broadly, the IC50 is the concentration needed to halve the response being measured. One may read the ED50 as the dose that gives a 50% effect, or the effect in half of the subjects. By inhibition in vivo is commonly meant how much of the control response was suppressed.

In data set [1] the target is Epidermal growth factor receptor (Homo sapiens) (UniProt P00533). The data set is described as follows: Inhibition of EGFR-TK receptor (unknown origin). The conditions noted are these: concentration not given here.
Epidermal growth factor receptor (Homo sapiens), sequence (P00533 whole entry): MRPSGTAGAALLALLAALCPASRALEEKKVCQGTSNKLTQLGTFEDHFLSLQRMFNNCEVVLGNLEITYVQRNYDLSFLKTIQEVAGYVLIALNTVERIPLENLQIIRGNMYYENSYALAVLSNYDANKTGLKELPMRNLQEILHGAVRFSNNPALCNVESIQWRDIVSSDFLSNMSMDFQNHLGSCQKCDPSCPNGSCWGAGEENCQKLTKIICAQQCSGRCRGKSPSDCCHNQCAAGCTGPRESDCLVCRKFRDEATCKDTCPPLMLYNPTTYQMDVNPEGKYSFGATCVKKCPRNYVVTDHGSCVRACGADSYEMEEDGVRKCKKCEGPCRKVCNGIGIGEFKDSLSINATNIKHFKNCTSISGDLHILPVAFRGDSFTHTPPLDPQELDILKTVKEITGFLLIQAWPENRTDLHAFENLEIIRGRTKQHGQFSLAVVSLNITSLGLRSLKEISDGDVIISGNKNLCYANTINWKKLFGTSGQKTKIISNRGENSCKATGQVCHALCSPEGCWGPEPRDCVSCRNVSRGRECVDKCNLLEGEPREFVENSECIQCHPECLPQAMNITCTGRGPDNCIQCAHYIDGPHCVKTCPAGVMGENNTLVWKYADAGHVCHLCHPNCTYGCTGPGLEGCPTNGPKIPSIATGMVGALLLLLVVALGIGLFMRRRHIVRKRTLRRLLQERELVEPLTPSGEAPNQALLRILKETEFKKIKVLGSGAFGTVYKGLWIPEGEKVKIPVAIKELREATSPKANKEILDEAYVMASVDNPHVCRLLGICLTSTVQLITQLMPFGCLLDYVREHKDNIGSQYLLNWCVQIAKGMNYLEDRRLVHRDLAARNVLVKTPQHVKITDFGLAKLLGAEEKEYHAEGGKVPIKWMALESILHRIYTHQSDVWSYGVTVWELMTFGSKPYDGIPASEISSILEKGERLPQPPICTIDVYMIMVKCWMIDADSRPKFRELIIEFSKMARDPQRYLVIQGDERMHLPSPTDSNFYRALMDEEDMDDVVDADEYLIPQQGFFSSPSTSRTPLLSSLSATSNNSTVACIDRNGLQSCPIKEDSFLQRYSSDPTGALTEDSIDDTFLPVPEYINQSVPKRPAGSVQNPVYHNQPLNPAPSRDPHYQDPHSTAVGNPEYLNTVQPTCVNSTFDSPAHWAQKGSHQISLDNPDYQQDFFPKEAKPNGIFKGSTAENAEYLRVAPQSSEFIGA
Data set [2] deals with T1, Cathepsin H (Capra hircus) (UniProt A0A060INS8).
T1 sequence (whole entry): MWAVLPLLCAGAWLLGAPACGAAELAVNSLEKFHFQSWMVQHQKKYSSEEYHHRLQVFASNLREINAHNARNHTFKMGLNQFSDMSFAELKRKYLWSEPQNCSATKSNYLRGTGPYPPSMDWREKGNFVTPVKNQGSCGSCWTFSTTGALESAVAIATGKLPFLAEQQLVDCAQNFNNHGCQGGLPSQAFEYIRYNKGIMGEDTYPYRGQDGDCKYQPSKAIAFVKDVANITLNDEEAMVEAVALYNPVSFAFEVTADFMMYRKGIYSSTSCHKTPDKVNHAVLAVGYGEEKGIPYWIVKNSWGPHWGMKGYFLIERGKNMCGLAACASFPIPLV
The data set is described as follows: Inhibition of goat cathepsin H at 10 uM in presence of Leu-beta-NA after 30 mins by colorimetric method.

Data set [3] concerns the target T1, Cathepsin H (Capra hircus). Nature of the data set: Inhibition of goat cathepsin H at 750 uM in presence of Leu-beta-NA after 30 mins by colorimetric method.
The species entered for data set [4] is Cavia porcellus. Nature of the data set: Antihistaminic activity in guinea pigs assessed as supression of histamine induced bronchospasm.
Data set [5] deals with HepG2. The data set is described as follows: Potency index, ratio of doxorubicin IC50 to compound IC50 for anticancer activity against human HepG2 cells after 48 hrs by SRB assay. The class given is functional. (In SRB staining, fixed cells bind dye roughly in proportion to their protein.)
Data set [6] has as its target Epidermal growth factor receptor (Homo sapiens) (UniProt P00533). The data set is described as follows: Inhibition of EGFR-tyrosine kinase (unknown origin) at 10 uM measured after 2 hrs by kinase-glo plus luminescence kinase assay. A general note: Kinase-Glo measures the ATP left after a reaction by luminescence.
For data set [7], the system named is HepG2. The data set is described as follows: Cytotoxicity against human HepG2 cells measured after 48 hrs by SRB assay. Format: functional, cell-based.
Data set [8] is described as follows: Anticancer activity against human HCT116 cells measured after 48 hrs by SRB assay. The class given is functional, cell-based. Particulars: hct-116.
Data set [9] is filed under the species Mus musculus. The data set is described as follows: Anticonvulsant activity in mouse assessed as reduction in MES-induced seizures by maximal electroshock seizure test. The class given is functional. (In general: The maximal electroshock test induces tonic seizures with an electrical stimulus.)
The nature of data set [10]: Protective index, ratio of neurotoxicity in mouse to anticonvulasnt activity for MES-induced seizure mouse model. The class given is toxicity, organism-based. Particulars: in vivo, read-out: PI.
Data set [11] has as its system Plasmodium berghei. The data set is described as follows: Antimalarial activity against chloroquine-sensitive Plasmodium berghei ANKA infected Swiss albino mouse assessed as suppression of parasitemia at 18.73 mg/kg administered for 4 consecutive days measured on 5th day by Giemsa staining based microscopic method. Format: functional.
Data set [12] deals with Plasmodium berghei. Nature of the data set: Antimalarial activity against chloroquine-sensitive Plasmodium berghei ANKA infected Swiss albino mouse assessed as parasitemia at 18.73 mg/kg administered for 4 consecutive days measured on 5th day by Giemsa staining based microscopic method. The class given is functional.
Data set [13] has as its system Plasmodium berghei. The data set is described as follows: Antimalarial activity against chloroquine-sensitive Plasmodium berghei ANKA infected Swiss albino as mean survival time at 18.73 mg/kg administered for 4 consecutive days. Format: functional.
In data set [14] the target is Cathepsin B (Capra hircus) (UniProt H9B8T9). The conditions noted are these: 25 uM.
Description: Inhibition of goat cathepsin B at 25 uM in presence of BANA after 30 mins by colorimetric method
Data set [15] has the same target. Particulars: 100 nM.
Description: Inhibition of goat cathepsin B at 100 nM in presence of BANA after 30 mins by colorimetric method
Data set [16] concerns Plasmodium berghei. Nature of the data set: Antimalarial activity against chloroquine-sensitive Plasmodium berghei ANKA infected Swiss albino mouse assessed as suppression of parasitemia at 16.59 mg/kg administered for 4 consecutive days measured on 5th day by Giemsa staining based microscopic method. The class given is functional.
The test system of data set [17] is Plasmodium berghei. The data set is described as follows: Antimalarial activity against chloroquine-sensitive Plasmodium berghei ANKA infected Swiss albino mouse assessed as mean survival time at 16.59 mg/kg administered for 4 consecutive days. The class given is functional.
For data set [18], the target named is Thymidine phosphorylase (Escherichia coli K-12, UniProt P07650). The data set is described as follows: Inhibition of recombinant Escherichia coli thymidine phosphorylase using thymidine as substrate measured after 10 mins at 30 degC by spectrophotometric method.
Thymidine phosphorylase, sequence (P07650 whole entry): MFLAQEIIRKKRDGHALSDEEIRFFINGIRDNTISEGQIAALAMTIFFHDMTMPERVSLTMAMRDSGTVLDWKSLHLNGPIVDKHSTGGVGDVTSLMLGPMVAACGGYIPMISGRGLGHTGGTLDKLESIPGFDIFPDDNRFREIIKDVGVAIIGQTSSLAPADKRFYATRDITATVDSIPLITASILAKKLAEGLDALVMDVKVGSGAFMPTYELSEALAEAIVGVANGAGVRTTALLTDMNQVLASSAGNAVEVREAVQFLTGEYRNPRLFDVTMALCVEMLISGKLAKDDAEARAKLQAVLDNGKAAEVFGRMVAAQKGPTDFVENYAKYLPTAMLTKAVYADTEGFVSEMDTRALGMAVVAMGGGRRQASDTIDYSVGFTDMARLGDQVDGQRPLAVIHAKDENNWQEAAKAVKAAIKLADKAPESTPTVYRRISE
Data set [19] can be described thus: Anticancer activity against human NCI lung cancer cell by MTT assay. The class given is functional, cell-based. The conditions noted are these: Cancer cell lines.
Data set [20] relates to HT-29. Nature of the data set: Anticancer activity against human HT-29 cells measured after 72 hrs by MTT assay. Format: functional, cell-based. The conditions noted are these: HT-29, 72 h.
Data set [21] can be described thus: Anticancer activity against human HCT116 cells measured after 72 hrs by MTT assay. The class given is functional, cell-based. Particulars: HCT-116, 72 h.
A short description of data set [22]: Cytotoxicity against human lymphocytes measured after 72 hrs by MTT assay. Format: cell-based. The conditions noted are these: Lymphocyte.

Each structure is given as a SMILES string.

In data set [1], `O=C(/C=C/c1ccccc1)c1ccc(-n2c(-c3ccco3)nc3ccccc3c2=O)cc1` returned an inhibition of 84%.
`O=C1NC(c2ccc(F)cc2)Nc2ccccc21` (configuration not stated): the inhibition amounted to 100% in data set [2] and 50% in [3].
For the compound `CN(C)CCC(c1ccc(Cl)cc1)c1ccccn1.O=C(O)/C=C\C(=O)O` (configuration not stated) [CHLORPHENIRAMINE MALEATE], the “inhibition (INH)” value in [4] was found to be 70.09%.
Consider `N#CC1=C(N)OC(c2ccc(-n3c(-c4ccco4)nc4ccccc4c3=O)cc2)=CC1c1ccc(Cl)cc1` (configuration not stated), for which, in [5], the “Ratio IC50” value is 24. In addition, the inhibition in data set [6] is 95.6%.
For the compound `Cc1ccc(-c2cc(-c3ccc(-n4c(-c5ccco5)nc5ccccc5c4=O)cc3)[nH]c(=N)c2C#N)cc1`, the IC50 in data set [7] came to 6.7 µM; in [8], 1.2 µM.
Consider `O=c1c2ccccc2nc(-n2cncn2)n1-c1ccc(Cl)cc1`, for which the 50% effective dose (ED50) in data set [9] is 88 mg/kg. Further, in data set [10], the selectivity ratio is > 25.5.
Consider `COc1ccc(-c2cc(-c3ccc(-n4c(-c5ccco5)nc5ccccc5c4=O)cc3)[nH]c(=N)c2C#N)cc1`, for which the IC50 in data set [7] is 6.6 µM; in [8] it was 0.2 µM. In addition, in data set [5], the “Ratio IC50” value is recorded as 4.
In the case of `COc1cc(/C=C/c2nc3ccccc3c(=O)n2-c2ccccc2C)ccc1O`, in [11], the inhibition in vivo at 18.73 mg/kg is 72.9%. For the same compound, the Activity in [12] is given as 17.71%. Also, the MST in data set [13] was found to be 9.2 days.
`Cc1ccc(C2NC(=O)c3ccccc3N2)cc1` (configuration not stated): the figures for the inhibition in data set [14] and in data set [15] were 100% and 50%, respectively.
On to `O=c1c2ccccc2nc(/C=C/c2ccc(O)cc2)n1-c1ccccc1`, for which the inhibition in vivo at 16.59 mg/kg in data set [16] is 67.6%. For the same compound, in [17], the MST stood at 8.3 days.
As to `O=c1[nH]c(-c2ccc(O)c(O)c2)nc2ccccc12`, the IC50 in data set [18] amounted to 42.9 µM.
`CN(Cc1cnc2nc(N)nc(N)c2n1)c1ccc(C(=O)N[C@@H](CCC(=O)O)C(=O)O)cc1` [METHOTREXATE] registered an IC50 in [19] of 2.4 µM.
With `O=c1c2cc(N3CCN(c4ccccc4F)CC3)ccc2ncn1Cc1ccccc1`, the IC50 in [20] worked out at 50.9 µM; in data set [21], 46 µM; in data set [22] it was 197 µM.
As to `Cc1nnc2n(-c3cccc(Cl)c3)c(=O)c3ccccc3n12`, the “inhibition (INH)” value in data set [4] was determined as 69.65%.
Take `O=c1[nH]c(-c2cc(O)ccc2O)nc2ccccc12`: the IC50 in data set [18] was determined as 59.5 µM.
In turn, `Cc1cc(C)nc(NS(=O)(=O)c2ccc(-n3c(C)nc4ccc(F)cc4c3=O)cc2)n1` gave an IC50 in [19] of 2.51 µM.
For the compound `COc1cccc2c1C(=O)c1c(O)c3c(c(O)c1C2=O)C[C@@](O)(C(=O)CO)C[C@@H]3O[C@H]1C[C@H](N)[C@H](O)[C@H](C)O1` [DOXORUBICIN], the values for the IC50 in data set [7] and in [8] were 5.7 µM and 4.8 µM, respectively.
As for `O=c1c2ccccc2nc(-n2cncn2)n1-c1cccc(Br)c1`, the ED50 in [9] was 94.6 mg/kg. In addition, the selectivity ratio in data set [10] was > 26.
